Results published in patent US20240382600A1, “BIFUNCTIONAL DEGRADERS COMPRISING A TEAD BINDER” (Novartis AG, priority 2021, published 2024).

Legend:
[1] = target: Avi-humanTEAD4^217-434 / Cy5 labeled humanYAP^60-100 (Homo sapiens (Human), UniProt Q15561); assay: In-vitro biochemical TR-FRET assay (TEAD4/YAP); type: binding; details: 1 h at room temperature
Method: N-terminus Cy5 labeled humanYAP^60-100 (20 nM) was then added to this preparation. Compounds were dissolved at 10 mM in 100% DMSO and serial dilutions were made in 100% DMSO. The diluted compound solutions were incubated in white 384-well plates (Greiner Bio-One) for 1 h at room temperature with the above described mix. The final DMSO concentration present in the assay was 1%. […] The IC50 values were estimated by fitting the data by nonlinear fit regression (GraphPad Prism).

[2] = tested on: YAP-dependent transcription in NCI-H2052 Tet-On shYAP_2371 pLenti6 MCAT_Luc cells; assay: YAP reporter gene activity assay (MCAT-Luc), NCI-H2052; type: cell-based; details: Homo sapiens, 24 hrs
[3] = tested on: YAP-dependent transcription in SF268-MCAT_Luc_dox-i-shYAPLevy (Clone 13) cells; assay: YAP reporter gene activity assay (MCAT-Luc), SF268; type: cell-based; details: Homo sapiens, SF-268; SF268 MCAT_Luc, 24 hrs
[4] = tested on: MKN-45/Ubc-luc cells (unspecific inhibition of luciferase expression or activity); assay: Reporter gene assay specificity control (Ubc-Luc), MKN-45; type: cell-based; details: Homo sapiens; MKN-45/Ubc-luc specificity control, 24 hrs
Description: (§1) NCI-H2052 mesothelioma cells (RRID: CVCL_1518) bearing Hippo-pathway inactivating mutations upstream of YAP (homozygous deletion of LATS2 and mutation of NF2) were obtained from ATCC (American Type Culture Collection), while SF268 glioma cells (RRID: CVCL_1689) overexpressing YAP due to genomic amplification were obtained from the NCI (National Cancer Institute). MKN-45 gastric adenocarcinoma cells (RRID: CVCL_0434) genomically deleted for YAP were obtained from the JCRB (Japanese Collection of Research Bioresources) Cell Bank.
As a specificity control, MKN-45 cells were stably transduced with a Ubc-Luc reporter construct, in which constitutive expression of firefly luciferase is driven by the promoter of the ubiquitin C housekeeping gene. The resulting cell line, MKN-45/Ubc-luc, was selected and maintained in growth medium (RPMI 1640 (Amimed Cat #1-41F01-I), 2 mM L-Glutamine (Amimed Cat #5-10K50-H), 10% fetal calf serum (Amimed Cat #2-01F30-I Lot K08815P), 1% MEM Non-essential amino acids (Amimed Cat #5-13K00-H), 1× Penicillin/Streptomycin (Amimed Cat #4-01F00-H)) containing 1 μg/ml blasticidin (Gibco Cat #A11139-03).
(§2) Stock solutions of compounds were prepared at a concentration of 10 mM in DMSO and stored at 4° C. Where necessary to afford a full dose-response curve, the stock solutions were pre-diluted in DMSO to 1′000-fold the desired reduced start concentration. On the day after cell seeding, eleven 2-fold serial dilutions of each compound were dispensed directly into the cell assay plates using a HP 300D non-contact Digital Dispenser (TECAN). The final concentration of DMSO was normalized to 0.1% in all wells.
The ability of compounds to inhibit YAP-dependent transcription was assessed in NCI-H2052 Tet-On shYAP_2371 pLenti6 MCAT_Luc and SF268-MCAT_Luc, dox-i-shYAPLevy (Clone 13) cells, while specificity (lack of unspecific inhibition of luciferase expression or activity) was assessed in MKN-45/Ubc-luc cells. The individual cell lines were seeded at 2′500 cells/20 μl/well into white-wall, clear-bottom 384-well plates (Greiner, Cat #781098) and incubated over night at 37° C. prior to addition of serial compound dilutions as described above. Following incubation for 24 hrs at 37° C., compound-mediated modulation of reporter-gene activity was quantified 5 min after addition 20 μL […] BrightGlo (Promega Cat #E2620), by measuring luminescence intensity on a multi-mode plate-reader (TECAN) with an integration time of 100 ms.
(§3) For data analysis, the assay background value determined in wells containing medium, but no cells, was subtracted from all data points.

[5] = tested on: NCI-H2052 Tet-On shYAP_2371 pLenti6 MCAT_Luc cells; assay: Proliferation assay (resazurin/AlamarBlue), NCI-H2052; type: cell-based; details: Homo sapiens; NCI-H2052, 72 hours
Description: as §1, §2
(§4) After incubation for 72 hours at 37° C., compound-mediated modulation of cell viability was quantified as follows. […] To enable differentiation of cytotoxic from cytostatic compound effects, the number of viable cells on the day of compound addition (day 0) was assessed in a separate cell plate and used to assess the extent of cell viability suppression as described in the following section.
as §3
(§5) The extent of growth inhibition and potential cell kill was assessed by comparing the resorufin levels in compound-treated cells with those present at the time of compound addition. To this end, the following conditional concept was programmatically applied in HELIOS to calculate % growth (% G) for each compound-treated well: % G=(T−V0)/V0))*100 when T<V0, and % G=(T−V0)/(V−V0)))*100 when T≥V0, where V0 is the viability level at time of compound addition, while V and T represent vehicle-control and compound-treated viability levels, respectively, at the end of the compound incubation. 100%, 0% and −100% signify absence of growth inhibition, growth stasis, and complete cell kill, respectively. Compound concentrations leading to half-maximal growth inhibition (GI50) and residual cell viability at the highest tested compound concentration (Data(cmax), expressed in percent) were routinely calculated.

[6] = tested on: SF268-MCAT_Luc_dox-i-shYAPLevy (Clone 13) cells; assay: Proliferation assay (resazurin/AlamarBlue), SF268; type: cell-based; details: Homo sapiens, SF-268; SF268, 72 hours
Description: as §1, §2, §4, §3, §5

[7] = tested on: MKN-45/Ubc-luc cells; assay: Proliferation assay (resazurin/AlamarBlue), MKN-45; type: cell-based; details: Homo sapiens; MKN-45, 72 hours
Description: as §1
As a specificity control, MKN-45 cells were stably transduced with a Ubc-Luc reporter construct, in which constitutive expression of firefly luciferase is driven by the promoter of the ubiquitin C housekeeping gene.
as §2, §4, §3, §5

[8] = target: TEAD1-GFP in HEK293A cells (Homo sapiens (Human), UniProt P28347); assay: TEAD1 protein abundance flow cytometry assay in HEK293A; type: cell-based; details: HEK293A TEAD1-GFP-CHYSEL-mCherry sensor cells, 24 h, GFP signal by flow cytometry
Sequence of TEAD1-GFP in HEK293A cells (P28347 whole entry): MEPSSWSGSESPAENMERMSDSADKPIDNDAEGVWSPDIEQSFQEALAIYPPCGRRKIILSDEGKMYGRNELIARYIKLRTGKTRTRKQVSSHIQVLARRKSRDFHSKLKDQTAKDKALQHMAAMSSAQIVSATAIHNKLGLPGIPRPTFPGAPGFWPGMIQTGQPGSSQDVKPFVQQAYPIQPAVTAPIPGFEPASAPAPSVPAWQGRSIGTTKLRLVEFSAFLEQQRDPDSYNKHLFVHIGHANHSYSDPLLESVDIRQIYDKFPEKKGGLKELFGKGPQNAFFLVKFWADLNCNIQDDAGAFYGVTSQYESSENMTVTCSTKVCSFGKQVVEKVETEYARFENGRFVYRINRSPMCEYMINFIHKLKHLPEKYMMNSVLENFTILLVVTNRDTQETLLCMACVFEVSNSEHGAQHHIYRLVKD
Method: Degradation of TEAD1 was measured in HEK293A cells (Invitrogen R70507) expressing TEAD1-GFP and mCherry from a stably integrated bicistronic TEAD1-GFP-CHYSEL-mCherry construct. Reduction of the GFP signal measured by flow cytometry served as readout for TEAD1 degradation after degrader treatment.
Stable HEK293A sensor cells were maintained in complete growth medium (DMEM high Glucose+10% FCS+1% L-Glutamine+1% NEAA+1% NaPyr.+4 μg/mL blasticidin) with passaging performed twice per week. On Day 0, stable HEK293A sensor cells were seeded at 5,000 cells/well in a 96-well microtiter plate in 100 μL complete medium. On Day 1, cells were treated in duplicate with 10-point 1:3 dilution series of compound using the HP D300 Digital Dispenser (Tecan). DMSO concentrations were normalized across the plate to 0.1%. On Day 2, after 24 h of incubation at 37° C., treatment media was discarded, cells rinsed with 100 μL/well PBS and then detached using 40 μL trypsin/well for 5 min. Trypsin was neutralized with 100 μL/well PBS+20% FCS).
Flow cytometry was performed on the samples using the CytoFlex S (Beckman Coulter). Cell identification was then performed using forward (FSC) vs. side scatter (SSC) plots. Single cell discrimination was performed using SSC-Width (SSC-W) vs. SSC-Height (SSCH) plots. Median GFP values for 2,500 single cells were used to determine TEAD1 levels. Median GFP values from HEK293A were used as a background signal and thus defining 0% TEAD1 signal. Median GFP values from DMSO treated HEK293A TEAD1-GFP CHYSEL-mCherry were used to define 100%
TEAD1 signal for subsequent DC50 curves (concentration at 50% TAED1 degradation). GFP and RFP were read in the channels called FITC and PE, respectively. Concentration response curves plotting relative reduction of the GFP signal (measured by flow cytometry) versus 10 compound concentrations (starting concentration 10 μM, 3 fold dilution steps) of the compounds allowed generation of DC50 values.

Sequence of Avi-humanTEAD4^217-434 / Cy5 labeled humanYAP^60-100 (Q15561 217-434): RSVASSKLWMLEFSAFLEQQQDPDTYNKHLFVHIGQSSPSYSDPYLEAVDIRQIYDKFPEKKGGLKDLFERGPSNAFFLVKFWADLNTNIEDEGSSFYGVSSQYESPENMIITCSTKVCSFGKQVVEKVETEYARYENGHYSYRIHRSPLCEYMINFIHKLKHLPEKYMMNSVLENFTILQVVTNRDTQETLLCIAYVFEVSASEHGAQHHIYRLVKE

| SMILES | IC50 [1] [nM] | IC50 [2] [nM] | IC50 [3] [nM] | IC50 [4] [nM] | GI50 [5] [nM] | GI50 [6] [nM] | GI50 [7] [nM] | DC50 [8] [nM] |
| --- | --- | --- | --- | --- | --- | --- | --- | --- |
| COc1ccc(C(=O)N2CCC(CC3CCN(C(=O)[C@H]4CC[C@H](NC[C@]5(c6ccccc6)Oc6cc(F)c(Cl)c(-c7c(C(N)=O)ccc(OC)c7F)c6[C@@H]5C)CC4)CC3)CC2)cc1N1CCC(=O)NC1=O (atropisomer, axis not shown) [Example 1, 2-((2S,3S,4S)-5-chloro-2-((((1r,4S)-4-(4-((1-(3-(2,4-dioxotetrahydropyrimidin-1(2H)-yl)-4-methoxybenzoyl)piperidin-4-yl)methyl)piperidine-1-carbonyl)cyclohexyl)amino)methyl)-6-fluoro-3-methyl-2-phenyl-2,3-dihydrobenzofuran-4-yl)-3-fluoro-4-methoxybenzamide] | 1.9 | 3.6 | 0.3 | > 20000 | 15 | 14 | 11000 | 0.6 |
| COc1ccc(C(=O)N2CCC(OC3CCN(C(=O)[C@H]4CC[C@H](NC[C@]5(c6ccccc6)Oc6cc(F)c(Cl)c(-c7c(C(N)=O)ccc(OC)c7F)c6[C@@H]5C)CC4)CC3)CC2)cc1N1CCC(=O)NC1=O (atropisomer, axis not shown) [Example 2, 2-((2S,3S,4S)-5-chloro-2-((((1r,4S)-4-(4-((1-(3-(2,4-dioxotetrahydropyrimidin-1(2H)-yl)-4-methoxybenzoyl)piperidin-4-yl)oxy)piperidine-1-carbonyl)cyclohexyl)amino)methyl)-6-fluoro-3-methyl-2-phenyl-2,3-dihydrobenzofuran-4-yl)-3-fluoro-4-methoxybenzamide] | 1.4 | 13 | 0.9 | > 20000 | 48 | 41 | > 20000 | 2 |
| COc1ccc(C(=O)N2CCN(CC3CCN(CCNC(=O)[C@H]4CC[C@H](NC[C@]5(c6ccccc6)Oc6cc(F)c(Cl)c(-c7c(C(N)=O)ccc(OC)c7F)c6[C@@H]5C)CC4)CC3)CC2)cc1N1CCC(=O)NC1=O (atropisomer, axis not shown) [Example 3, 2-((2S,3S,4S)-5-chloro-2-((((1r,4S)-4-((2-(4-((4-(3-(2,4-dioxotetrahydropyrimidin-1(2H)-yl)-4-methoxybenzoyl)piperazin-1-yl)methyl)piperidin-1-yl)ethyl)carbamoyl)cyclohexyl)amino)methyl)-6-fluoro-3-methyl-2-phenyl-2,3-dihydrobenzofuran-4-yl)-3-fluoro-4-methoxybenzamide] | < 1 | 98 | 1.6 | > 20000 | 320 | 54 | > 20000 | 6 |
| COc1ccc(C(=O)N2CCC3(CCN(CCNC(=O)[C@H]4CC[C@H](NC[C@]5(c6ccccc6)Oc6cc(F)c(Cl)c(-c7c(C(N)=O)ccc(OC)c7F)c6[C@@H]5C)CC4)CC3)CC2)cc1N1CCC(=O)NC1=O (atropisomer, axis not shown) [Example 5, 2-((2S,3S,4S)-5-chloro-2-((((1r,4S)-4-((2-(9-(3-(2,4-dioxotetrahydropyrimidin-1(2H)-yl)-4-methoxybenzoyl)-3,9-diazaspiro[5.5]undecan-3-yl)ethyl)carbamoyl)cyclohexyl)amino)methyl)-6-fluoro-3-methyl-2-phenyl-2,3-dihydrobenzofuran-4-yl)-3-fluoro-4-methoxybenzamide] | < 1 | 160 | 2.5 | > 20000 | 360 | 89 | > 20000 | 35 |
| COc1ccc(C(=O)NCCCCCn2cc(-c3ccc4c(c3)CN(C3CCC(=O)NC3=O)C4=O)nn2)c(-c2c(Cl)c(F)cc3c2C[C@@](CN)(c2ccccc2)O3)c1F (stereo partly drawn) [Example 37, 2-((2S,4S)-2-(aminomethyl)-5-chloro-6-fluoro-2-phenyl-2,3-dihydrobenzofuran-4-yl)-N-(5-(4-(2-(2,6-dioxopiperidin-3-yl)-1-oxoisoindolin-5-yl)-1H-1,2,3-triazol-1-yl)pentyl)-3-fluoro-4-methoxybenzamide] | 120 | 3350 | 420 | 15900 | 6050 | 14900 | 12400 |  |
